Source: patent publication US20190136321A1, “USE OF TRANSLATIONAL PROFILING TO IDENTIFY TARGET MOLECULES FOR THERAPEUTIC TREATMENT” (The Regents of The University of California, priority 2013, published 2019)

Test system: SW620 cells
Test: Ribosome profiling of SW620 cells (transcription, translational rate, translational efficiency)
Assay type: cell-based, human
Conditions: 8 hours
Description: SW620 human colon cancer cells were cultured in DMEM media supplemented with penicillin G (100 U/ml), streptomycin (100 μg/ml), and 10% FBS in a humidified atmosphere of 5% CO2 maintained at 37° C.
SW620 cells (ATCC, passage 12) were seeded at about 75% confluence 24 hrs prior to drug treatment. […] About 6×10^6 cells/10 cm plate and about 1×10^6 cells/well of a 6-well plate were harvested for ribosome profiling and Western blot analysis, respectively, following drug treatment.

CC(=O)Nc1cccc(-n2c(=O)n(C3CC3)c(=O)c3c(Nc4ccc(I)cc4F)n(C)c(=O)c(C)c32)c1 [GSK212]
Profile TE (gene ARID5A, 250 nM): −0.4 log2 MEKi/DMSO
Profile rna (gene ARID5A, 250 nM): −0.5 log2 MEKi/DMSO
Profile rpf (gene ARID5A, 250 nM): −0.9 log2 MEKi/DMSO
Profile TE (gene B4GALT6, 250 nM): 0.0 log2 MEKi/DMSO
Profile rna (gene B4GALT6, 250 nM): 0.0 log2 MEKi/DMSO
Profile rpf (gene B4GALT6, 250 nM): −0.1 log2 MEKi/DMSO
Profile TE (gene BXDC2/BRIX1, 250 nM): 0.2 log2 MEKi/DMSO
Profile rna (gene BXDC2/BRIX1, 250 nM): −1.1 log2 MEKi/DMSO
Profile rpf (gene BXDC2/BRIX1, 250 nM): −0.8 log2 MEKi/DMSO
Profile TE (gene BYSL, 250 nM): 0.2 log2 MEKi/DMSO
Profile rna (gene BYSL, 250 nM): −0.8 log2 MEKi/DMSO
Profile rpf (gene BYSL, 250 nM): −0.6 log2 MEKi/DMSO
Profile TE (gene CCND1, 250 nM): −0.3 log2 MEKi/DMSO
Profile rna (gene CCND1, 250 nM): −1.8 log2 MEKi/DMSO
Profile rpf (gene CCND1, 250 nM): −2.0 log2 MEKi/DMSO
Profile TE (gene CD3EAP, 250 nM): −0.5 log2 MEKi/DMSO
Profile rna (gene CD3EAP, 250 nM): −0.6 log2 MEKi/DMSO
Profile rpf (gene CD3EAP, 250 nM): −1.1 log2 MEKi/DMSO
Profile TE (gene CHSY1, 250 nM): −0.7 log2 MEKi/DMSO
Profile rna (gene CHSY1, 250 nM): 0.0 log2 MEKi/DMSO
Profile rpf (gene CHSY1, 250 nM): −0.7 log2 MEKi/DMSO
Profile TE (gene DDX21, 250 nM): −0.6 log2 MEKi/DMSO
Profile rna (gene DDX21, 250 nM): −0.3 log2 MEKi/DMSO
Profile rpf (gene DDX21, 250 nM): −1.0 log2 MEKi/DMSO
Profile TE (gene DUSP4, 250 nM): −0.4 log2 MEKi/DMSO
Profile rna (gene DUSP4, 250 nM): −2.0 log2 MEKi/DMSO
Profile rpf (gene DUSP4, 250 nM): −2.4 log2 MEKi/DMSO
Profile TE (gene DUSP6, 250 nM): −3.1 log2 MEKi/DMSO
Profile rna (gene DUSP6, 250 nM): −6.3 log2 MEKi/DMSO
Profile rpf (gene DUSP6, 250 nM): −9.3 log2 MEKi/DMSO
Profile TE (gene EGR1, 250 nM): −3.1 log2 MEKi/DMSO
Profile rna (gene EGR1, 250 nM): −1.0 log2 MEKi/DMSO
Profile rpf (gene EGR1, 250 nM): −4.1 log2 MEKi/DMSO
Profile TE (gene ELOVL6, 250 nM): 0.6 log2 MEKi/DMSO
Profile rna (gene ELOVL6, 250 nM): −1.4 log2 MEKi/DMSO
Profile rpf (gene ELOVL6, 250 nM): −0.8 log2 MEKi/DMSO
Profile rna (gene ETV1, 250 nM): −3.5 log2 MEKi/DMSO
Profile TE (gene ETV4, 250 nM): −0.6 log2 MEKi/DMSO
Profile rna (gene ETV4, 250 nM): −2.2 log2 MEKi/DMSO
Profile rpf (gene ETV4, 250 nM): −2.8 log2 MEKi/DMSO
Profile TE (gene ETV5, 250 nM): −3.0 log2 MEKi/DMSO
Profile rna (gene ETV5, 250 nM): −2.6 log2 MEKi/DMSO
Profile rpf (gene ETV5, 250 nM): −5.6 log2 MEKi/DMSO
Profile TE (gene FLJ10534/TSR1, 250 nM): −0.6 log2 MEKi/DMSO
Profile rna (gene FLJ10534/TSR1, 250 nM): −0.3 log2 MEKi/DMSO
Profile rpf (gene FLJ10534/TSR1, 250 nM): −0.8 log2 MEKi/DMSO
Profile TE (gene FOS, 250 nM): 0.2 log2 MEKi/DMSO
Profile rna (gene FOS, 250 nM): −2.9 log2 MEKi/DMSO
Profile rpf (gene FOS, 250 nM): −2.7 log2 MEKi/DMSO
Profile TE (gene FOSL1, 250 nM): −0.5 log2 MEKi/DMSO
Profile rna (gene FOSL1, 250 nM): −3.6 log2 MEKi/DMSO
Profile rpf (gene FOSL1, 250 nM): −4.1 log2 MEKi/DMSO
Profile TE (gene GEMIN4, 250 nM): −0.5 log2 MEKi/DMSO
Profile rna (gene GEMIN4, 250 nM): −0.1 log2 MEKi/DMSO
Profile rpf (gene GEMIN4, 250 nM): −0.6 log2 MEKi/DMSO
Profile TE (gene GNL3, 250 nM): −0.2 log2 MEKi/DMSO
Profile rna (gene GNL3, 250 nM): −0.7 log2 MEKi/DMSO
Profile rpf (gene GNL3, 250 nM): −0.8 log2 MEKi/DMSO
Profile rpf (gene GPR3, 250 nM): −2.8 log2 MEKi/DMSO
Profile TE (gene GTPBP4, 250 nM): −0.3 log2 MEKi/DMSO
Profile rna (gene GTPBP4, 250 nM): −0.4 log2 MEKi/DMSO
Profile rpf (gene GTPBP4, 250 nM): −0.7 log2 MEKi/DMSO
Profile TE (gene HMGA2, 250 nM): 1.2 log2 MEKi/DMSO
Profile rna (gene HMGA2, 250 nM): −2.9 log2 MEKi/DMSO
Profile rpf (gene HMGA2, 250 nM): −1.7 log2 MEKi/DMSO
Profile TE (gene HSPC111/NOP16, 250 nM): 0.6 log2 MEKi/DMSO
Profile rna (gene HSPC111/NOP16, 250 nM): −1.5 log2 MEKi/DMSO
Profile rpf (gene HSPC111/NOP16, 250 nM): −0.9 log2 MEKi/DMSO
Profile TE (gene IER3, 250 nM): −0.1 log2 MEKi/DMSO
Profile rna (gene IER3, 250 nM): −2.2 log2 MEKi/DMSO
Profile rpf (gene IER3, 250 nM): −2.3 log2 MEKi/DMSO
Profile TE (gene IL8, 250 nM): 2.4 log2 MEKi/DMSO
Profile rna (gene IL8, 250 nM): −5.6 log2 MEKi/DMSO
Profile rpf (gene IL8, 250 nM): −3.2 log2 MEKi/DMSO
